Results on 1 compound are retold here after patent US20200108032A1, “USE OF ISOFERULIC ACID, ISOFERULIC ACID-CONTAINING TRADITIONAL CHINESE MEDICINE EXTRACT AND CIMICIFUGAE RHIZOMA” (BEIJING DITAN HOSPITAL, CAPITAL MEDICAL UNIVERSITY, priority 2017, published 2020).

Assay [1] relates to joint tissue cytokines IL-9, IL-18 and MIP-2. Kind of assay: Joint tissue cytokines in CIA arthritis mice (multi-factor detection). Format: in vivo, C57BL/6 mice. The settings on record: MEAN ± SEM. The text has this: Test materials and animals: Consistent with Experimental Example 3. Anti-type II collagen antibody ELISA kit was purchased from Chondrex, Cytokine & Chemokine 36-Plex Mouse ProcartaPlex™ Panel 1A cytokine and chemokine detection kit was purchased from ThermoFisher.
Model preparation and drug administration: the drug dosage of each treatment group was the same as that of Experimental Example 3. After 21 days of the second immunization, the mice were anesthetized.
(3) The effects of each drug group on cytokine secretion in serum and joint tissues of CIA mice were measured. Seven mice from each group were examined; peripheral blood was collected and separated from serum. Cytokines in serum were detected by multiple factors: IFN-γ, IL-6, IL-9, IL-12, IL-17A, IP-10, MCP-1, MCP-3. MIP-1α, MIP-1β, Eotaxin, and G-CSF; the right hind limb knees, joints and claws were taken and stored in liquid nitrogen for quick freezing, then homogenized and extracted protein. Multi-factor detection of cytokines in tissues: IL-9, IL-18 and MIP-2 secretion.

For assay [2], the system named is mouse model of ConA hepatitis. In words: Survival rate of hepatitis mouse model of ConA. Format: in vivo, C57BL/6 mice. The settings on record: ConA 25 mg/kg i.v.; drug by gavage (compatibility 7 g/kg, Cimicifugae rhizoma 2 g/kg, total phenolic acid 300 mg/kg crude drug, isoferulic acid 5 mg/kg); observed at 96 h; model group 20%. An excerpt: Test materials: ConA was purchased from Sigma; isoferulic acid was purchased from Tianjin Fangfang Technology Co., Ltd.
Animals: C57BL/6 mice, purchased from Beijing Huafukang Biotechnology Co., Ltd.
Grouping: 50 C57BL/6 mice, male, 18-20 g, after 1 day of adaptive breeding, the mice were randomly divided into 5 groups of 10 in each group: ConA model group, Cimicifugae rhizoma compatibility group, Cimicifugae rhizoma group, Cimicifugae rhizoma total phenolic acid group and isoferulic acid group.
Model preparation and drug administration: 150 mg of ConA powder were weighed and dissolved in 40 mL of sterile PBS and left at room temperature for 1 to 2 hours; the solution was intermittently shaken gently to mix well. Low temperature ultrasound promoted dissolution (no more than 5 min each time) and avoided excessive foaming. After the solution was fully dissolved, the volume was adjusted to 50 mL, prepared to a concentration of 3 mg/mL, and filtered under pressure with a 0.45 μm filter. Mice were given a single intravenous injection at 25 mg/kg, with 100 μL per mouse. […]

For `COc1ccc(C=CC(=O)O)cc1O` [isoferulic acid, 3-hydroxy-4-methoxycinnamic acid], in assay [1], the “Joint tissue IL-9” value is on record as 3.2 ± 1.5 pg/mg, the “Joint tissue IL-18” value stood at 111.1 ± 125 pg/mg and the “Joint tissue MIP-2” value was 61.2 ± 45.8 pg/mg. Besides, in assay [2], the “survival rate of mice” value came to 60%.
